Data from patent publication US10421761B2, “Compounds for kinase modulation, and indications therefor” (Plexxikon Inc., priority 2013, dated 2019).

Test system: B9 cells
Details: Repl. 2; B9 cells

CCCS(=O)(=O)Nc1ccc(F)c(C(=O)c2c[nH]c3ncc(-c4ccc(Cl)cc4)cc23)c1F [vemurafenib]
probe 1430623_s_at response, Obfc2a (oligonucleotide/oligosaccharide-binding fold containing 2A): 1.88 | probe 1430700_a_at response, Pla2g7 (phospholipase A2, group VII (platelet-activating factor acetylhydrolase, plasma)): 2.18 | probe 1431416_a_at response, Jam2 (junction adhesion molecule 2): 1.93 | probe 1431422_a_at response, Dusp14 (dual specificity phosphatase 14): 1.93 | probe 1431611_a_at response, Cadm1 (cell adhesion molecule 1): 2.31 | probe 1431688_at response, LOC73899 (hypothetical LOC73899): 2.41 | probe 1431691_a_at response, Rab31 (RAB31, member RAS oncogene family): 2.04 | probe 1433909_at response, Syt17 (synaptotagmin XVII): 2.17 | probe 1434059_at response, B230312A22Rik (RIKEN cDNA B230312A22 gene): 2.10 | probe 1434092_at response, Atg9b (ATG9 autophagy related 9 homolog B (S. cerevisiae)): 1.89 | probe 1434109_at response, Sh3bgrl2 (SH3 domain binding glutamic acid-rich protein like 2): 2.33 | probe 1434252_at response, Tmcc3 (transmembrane and coiled coil domains 3): 1.95 | probe 1434601_at response, Amigo2 (adhesion molecule with Ig like domain 2): 1.89 | probe 1434957_at response, Cdon (cell adhesion molecule-related/down-regulated by oncogenes): 0.46 | probe 1435066_at response, Pitpnc1 (phosphatidylinositol transfer protein, cytoplasmic 1): 2.32 | probe 1435176_a_at response, Id2 (inhibitor of DNA binding 2): 0.46 | probe 1435330_at response, Pyhin1 (pyrin and HIN domain family, member 1): 2.38 | probe 1435331_at response, Pyhin1 (pyrin and HIN domain family, member 1): 3.71 | probe 1435460_at response, Prkg2 (protein kinase, cGMP-dependent, type II): 1.96 | probe 1435695_a_at response, Ggct (gamma-glutamyl cyclotransferase): 2.19 | probe 1436100_at response, Sh2d5 (SH2 domain containing 5): 2.35 | probe 1436329_at response, Egr3 (early growth response 3): 2.77 | probe 1436584_at response, Spry2 (sprouty homolog 2 (Drosophila)): 3.54 | probe 1436659_at response, Dclk1 (doublecortin-like kinase 1): 2.37 | probe 1436917_s_at response, Gpsm1 (G-protein signalling modulator 1 (AGS3-like, C. elegans)): 1.89 | probe 1436944_x_at response, Pisd /// Pisd-ps1 ///Pisd-ps3 (phosphatidylserine decarboxylase /// phosphatidylserine decarboxylase, pseudogene 1 /// phosphatidylserine decarboxylase, pseudogene 3): 0.48 | probe 1437092_at response, Clip4 (CAP-GLY domain containing linker protein family, member 4): 2.13 | probe 1437100_x_at response, Pim3 (proviral integration site 3): 2.05 | probe 1437199_at response: 4.31 | probe 1437271_at response, Clcf1 (cardiotrophin-like cytokine factor 1): 1.96 | probe 1437486_at response, Gprc5a (G protein-coupled receptor, family C, group 5, member A): 2.08 | probe 1437982_x_at response, Cox15 (COX15 homolog, cytochrome c oxidase assembly protein (yeast)): 0.45 | probe 1438038_at response, 4930402H24Rik (RIKEN cDNA 4930402H24 gene): 1.93 | probe 1438664_at response, Prkar2b (protein kinase, cAMP dependent regulatory, type II beta): 0.49 | probe 1438699_at response, Srd5a1 (steroid 5 alpha-reductase 1): 1.87 | probe 1439016_x_at response, Sprr2a (small proline-rich protein 2A): 0.42 | probe 1439109_at response, Ccdc68 (coiled-coil domain containing 68): 0.50 | probe 1439434_x_at response, Sh2d5 (SH2 domain containing 5): 1.91 | probe 1439797_at response, Ppard (peroxisome proliferator activator receptor delta): 2.32 | probe 1439878_at response, Ivl (involucrin): 2.90 | probe 1440169_x_at response, Ifnar2 (interferon (alpha and beta) receptor 2): 0.53 | probe 1440559_at response, Hmga2-ps1 (high mobility group AT-hook 2, pseudogene 1): 2.95 | probe 1441315_s_at response, Slc19a2 (solute carrier family 19 (thiamine transporter), member 2): 2.18 | probe 1441917_s_at response, Tmem40 (transmembrane protein 40): 2.11 | probe 1442350_at response: 2.13 | probe 1442363_at response, 1110012J17Rik (RIKEN cDNA 1110012J17 gene): 1.96 | probe 1443536_at response, Slc7a11 (solute carrier family 7 (cationic amino acid transporter, y+ system), member 11): 0.40 | probe 1445758_at response: 0.52 | probe 1446791_at response, Pi15 (peptidase inhibitor 15): 0.48 | probe 1447661_at response: 0.43 | probe 1447845_s_at response, Vnn1 (vanin 1): 0.46 | probe 1448364_at response, Ccng2 (cyclin G2): 2.01 | probe 1448532_at response, Prl8a9 (prolactin family8, subfamily a, member 9): 2.67 | probe 1448562_at response, Upp1 (uridine phosphorylase 1): 2.99 | probe 1448613_at response, Ecm1 (extracellular matrix protein 1): 1.89 | probe 1448617_at response, Cd53 (CD53 antigen): 1.99 | probe 1448810_at response, Gne (glucosamine): 2.16 | probe 1448855_at response, Rassf1 (Ras association (RalGDS/AF-6) domain family member 1): 2.05 | probe 1448894_at response, Akr1b8 (aldo-keto reductase family 1, member B8): 1.99 | probe 1448978_at response, Ngef (neuronal guanine nucleotide exchange factor): 3.24 | probe 1449038_at response, Hsd11b1 (hydroxysteroid 11-beta dehydrogenase 1): 2.51 | probe 1449125_at response, Tnfaip8l1 (tumor necrosis factor, alpha-induced protein 8-like 1): 2.10 | probe 1449133_at response, Sprr1a (small proline-rich protein 1A): 2.78 | probe 1449268_at response, Gfpt1 (glutamine fructose-6-phosphate transaminase 1): 2.36 | probe 1449297_at response, Casp12 (caspase 12): 0.47 | probe 1449334_at response, Timp3 (tissue inhibitor of metalloproteinase 3): 0.42 | probe 1449367_at response, Trex2 (three prime repair exonuclease 2): 4.68 | probe 1449408_at response, Jam2 (junction adhesion molecule 2): 2.08 | probe 1449545_at response, Fgf18 (fibroblast growth factor 18): 3.38 | probe 1449965_at response, Mcpt8 (mast cell protease 8): 2.61 | probe 1450241_a_at response, Evi2a (ecotropic viral integration site 2a): 4.27 | probe 1450262_at response, Clcf1 (cardiotrophin-like cytokine factor 1): 2.12 | probe 1450276_a_at response, Scin (scinderin): 2.63 | probe 1450376_at response, Mxi1 (Max interacting protein 1): 2.00 | probe 1450430_at response, Mrc1 (mannose receptor, C type 1): 2.97 | probe 1450501_at response, Itga2 (integrin alpha 2): 2.48 | probe 1450791_at response, Nppb (natriuretic peptide precursor type B): 4.39 | probe 1450976_at response, Ndrg1 (N-myc downstream regulated gene 1): 2.47 | probe 1451006_at response, Xdh (xanthine dehydrogenase): 0.39 | probe 1451308_at response, Elovl4 (elongation of very long chain fatty acids (FEN1/Elo2, SUR4/Elo3, yeast)-like 4): 2.21 | probe 1451446_at response, Antxr1 (anthrax toxin receptor 1): 0.43 | probe 1451501_a_at response, Ghr (growth hormone receptor): 2.25 | probe 1451529_at response, Sgtb (small glutamine-rich tetratricopeptide repeat (TPR)-containing, beta): 2.47 | probe 1451798_at response, Il1rn (interleukin 1 receptor antagonist): 2.76 | probe 1452058_a_at response, Rnfl1 (ring finger protein 11): 2.02 | probe 1452087_at response, Epsti1 (epithelial stromal interaction 1 (breast)): 2.32 | probe 1452203_at response, Obfc2a (oligonucleotide/oligosaccharide-binding fold containing 2A): 1.90 | probe 1452352_at response, Ctla2b (cytotoxic T lymphocyte-associated protein 2 beta): 2.30 | probe 1452521_a_at response, Plaur (plasminogen activator, urokinase receptor): 2.09 | probe 1453055_at response, Sema6d (sema domain, transmembrane domain (TM), and cytoplasmic domain, (semaphorin) 6D): 4.08 | probe 1453278_a_at response, Clip4 (CAP-GLY domain containing linker protein family, member 4): 1.99 | probe 1453345_at response, Nipal1 (NIPA-like domain containing 1): 3.92 | probe 1454048_a_at response, 4931408A02Rik /// LOC630876 (RIKEN cDNA 4931408A02 gene /// similar to Protein C21orf63 homolog precursor): 0.46 | probe 1454254_s_at response, 1600029D21Rik (RIKEN cDNA 1600029D21 gene): 2.18 | probe 1454649_at response, Srd5a1 (steroid 5 alpha-reductase 1): 2.08 | probe 1454699_at response, LOC100047324 /// Sesn1 (similar to Sesn1 protein /// sestrin 1): 0.37 | probe 1454710_at response, Spink2 (serine peptidase inhibitor, Kazal type 2): 2.03 | probe 1454780_at response, Galntl4 (UDP-N-acetyl-alpha-D-galactosamine:polypeptide N-acetylgalactosaminyltransferase-like 4): 0.44 | probe 1454877_at response, Sertad4 (SERTA domain containing 4): 0.42 | probe 1455104_at response, Mxd1 (MAX dimerization protein 1): 2.85 | probe 1455241_at response, BC037703 (cDNA sequence BC037703): 0.50 | probe 1455299_at response, Vgll3 (vestigial like 3 (Drosophila)): 0.44 | probe 1455981_at response, Gm11263 /// Gm12242 /// Gm13654 /// Gm14138 /// Gm16406 /// Gm4796 /// Gm6476 /// Gm9143 /// LOC100043734 /// LOC236932 /// LOC623245 /// LOC639593 /// Rps6: 0.46 | probe 1456150_at response, Jhdm1d (jumonji C domain-containing histone demethylase 1 homolog D (S. cerevisiae)): 1.99 | probe 1456174_x_at response, Ndrg1 (N-myc downstream regulated gene 1): 2.00 | probe 1456248_at response, Lce3f /// LOC630971 (late cornified envelope 3F /// hypothetical protein LOC630971): 2.45 | probe 1456284_at response, Tmem171 (transmembrane protein 171): 1.95 | probe 1456321_at response, Nipal1 (NIPA-like domain containing 1): 2.99 | probe 1456725_x_at response, Ezr (ezrin): 0.49 | probe 1456874_at response, Flrt2 (fibronectin leucine rich transmembrane protein 2): 0.54 | probe 1457042_at response, AI256396 (EST AI256396): 0.52 | probe 1457568_at response, Hnrnpd (heterogeneous nuclear ribonucleoprotein D): 0.50 | probe 1457666_s_at response, Ifi202b (interferon activated gene 202B): 3.89 | probe 1460220_a_at response, Csf1 (colony stimulating factor 1 (macrophage)): 0.38 | probe 1460302_at response, Thbs1 (thrombospondin 1): 0.50 | probe 1460472_at response, Cdk3 (cyclin-dependent kinase 3): 1.99 | probe 1460521_a_at response, Obfc2a (oligonucleotide/oligosaccharide-binding fold containing 2A): 2.32 | probe 1460695_a_at response, 2010111I01Rik (RIKEN cDNA 2010111I01 gene): 0.48
